In ChEMBL document CHEMBL5725383, “Ethynyl derivatives” (2017):

Molecular target: Metabotropic glutamate receptor 4 (Homo sapiens, UniProt Q14833)
Test: Ca2+ Mobilization In Vitro Assay: About 24 hrs before an experiment, 5×10^4 cells/well were seeded in poly-D-lysine coated, black/clear-bottomed 96-well plates. The cells were loaded with 2.5 μM Fluo-4AM in loading buffer (1×HBSS, 20 mM HEPES) for 1 hr at 37° C. and washed five times with loading buffer. The cells were transferred into a Functional Drug Screening System 7000 (Hamamatsu, Paris, France), and 11 half logarithmic serial dilutions of test compound at 37° C. were added and the cells were incubated for 10-30 min. with on-line recording of fluorescence. Following this pre-incubation step, the agonist (2S)-2-amino-4-phosphonobutanoic acid (L-AP4) was added to the cells at a concentration corresponding to EC20 with on-line recording of fluorescence; in order to account for day-to-day variations in the responsiveness of cells, the EC20 of L-AP4 was determined immediately ahead of each experiment by recording of a full dose-response curve of L-AP4. Responses were measured as peak increase in fluorescence minus basal (i.e. fluorescence without addition of L-AP4), normalized to the maximal stimulatory effect obtained with saturating concentrations of L-AP4. Graphs were plotted with the % maximal stimulatory using XLfit, a curve fitting program that iteratively plots the data using Levenburg Marquardt algorithm. […]

Metabotropic glutamate receptor 4, sequence (Q14833 whole entry): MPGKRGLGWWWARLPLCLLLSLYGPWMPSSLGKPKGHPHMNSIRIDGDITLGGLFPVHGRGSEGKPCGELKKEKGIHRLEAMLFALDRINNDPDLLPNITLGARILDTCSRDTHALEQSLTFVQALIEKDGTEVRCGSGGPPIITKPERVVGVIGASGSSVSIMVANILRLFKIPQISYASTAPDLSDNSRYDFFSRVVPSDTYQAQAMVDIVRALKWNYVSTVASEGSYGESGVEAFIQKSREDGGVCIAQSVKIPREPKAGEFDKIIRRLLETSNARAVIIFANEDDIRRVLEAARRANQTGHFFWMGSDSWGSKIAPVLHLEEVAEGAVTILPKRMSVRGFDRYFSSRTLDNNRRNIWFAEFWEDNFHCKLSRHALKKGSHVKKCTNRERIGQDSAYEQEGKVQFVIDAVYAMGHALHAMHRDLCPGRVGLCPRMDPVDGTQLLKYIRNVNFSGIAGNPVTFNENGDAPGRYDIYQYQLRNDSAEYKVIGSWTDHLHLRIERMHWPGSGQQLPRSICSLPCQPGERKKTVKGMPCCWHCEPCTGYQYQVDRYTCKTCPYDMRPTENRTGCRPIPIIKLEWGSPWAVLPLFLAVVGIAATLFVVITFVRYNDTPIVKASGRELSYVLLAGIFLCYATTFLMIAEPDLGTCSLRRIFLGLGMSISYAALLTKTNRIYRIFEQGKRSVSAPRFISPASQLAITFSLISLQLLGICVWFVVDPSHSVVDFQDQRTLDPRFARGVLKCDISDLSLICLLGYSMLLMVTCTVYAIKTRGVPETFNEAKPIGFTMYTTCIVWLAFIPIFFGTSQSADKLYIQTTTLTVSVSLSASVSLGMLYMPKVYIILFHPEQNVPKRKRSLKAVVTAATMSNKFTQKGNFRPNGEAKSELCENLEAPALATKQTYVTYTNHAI

EC50: 187 nM
SMILES: O=c1[nH]c2ncsc2c(=O)n1-c1c(F)cc(C#Cc2ccccc2)cc1F
